In experiment [1] the test system is E. coli H69 humanized mutant ribosome RFP strain growth, fluorescence, 24 h. The experiment is described as follows: growth inhibition of wild-type GFP E. coli, dose response, H69 mutant RFP, cherry-pick (AID 977621).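 Note: wild-type GFP and H69 mutant RFP strains grown together 50/50 in each well.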 To be noted: test 2.
Experiment [2] has as its system E. coli wild-type GFP strain growth, fluorescence, 24 h. The description is as above.
The mark [3] stands for this setting: E. coli mixed culture, 24 h, measured here: total growth OD600, test 2.
Where [4] appears, read: measured here: total growth OD600, test 2.

Each structure is given as a SMILES string. Records with an inconclusive call do not appear. Active and inactive are the calls of the source.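 Rule for the calls: active = Wild-type ribosome reporter drop at least double the humanized mutant ribosome reporter drop, growth loss under a set limit; inconclusive = no clear call, values can overlap the other calls; inactive = the rest.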

For `Cc1cccc(C)c1NC(=O)C1(C)CSCC(=O)N1CCOc1ccccc1` (stereo not drawn), the concentration at half-maximal activity (AC50) in experiment [1] and in experiment [2] (setting [3]) was greater than 100 µM in each case.
For `COc1ccc(-c2ccccc2)cc1NC(=O)c1ccncc1`, the concentration at half-maximal activity (AC50) – broadly, the midpoint of the concentration-response curve, whichever way the signal moves – in experiment [1] is 4.41 µM; in experiment [2] (setting [3]), greater than 100 µM.
`COC(=O)c1ccsc1NC(=O)c1cccc(OC)c1`: the AC50 in experiment [1] and in experiment [2] (setting [3]) was greater than 100 µM each time.
Regarding `O=C(NCc1ccccc1)c1ccc(-c2ccccc2F)o1`, the AC50 in experiment [1] is greater than 100 µM; in experiment [2] (setting [3]) it was 36.1 µM.
As for `COc1ccccc1CNC(=O)CN1C(=O)NC(c2ccccc2)(c2ccccc2)C1=O`, the AC50 in experiment [1] is 50.3 µM; in experiment [2] (setting [3]) it was greater than 100 µM.
`COc1ccc(NC(=O)C2CC3C=CC2C3)c([N+](=O)[O-])c1` (stereo not drawn): the half-maximal activity concentration (AC50) in experiment [1] was greater than 100 µM; in experiment [2], > 100 µM (inactive).
For the compound `O=S1(=O)N[C@H](Cc2ccccc2)COc2cccc(N3CCC[C@H]3CO)c21`, the half-maximal activity concentration (AC50) in experiment [1] and in experiment [2] (setting [3]) was greater than 100 µM each time.
On to `O=S(=O)(NCC1CCCO1)c1ccc(-c2ccc(Cl)cc2)cc1` (stereo not drawn), for which the figures for the half-maximal activity concentration (AC50) in experiment [1], in experiment [2] and in experiment [2] (setting [3]) were greater than 100 µM, > 100 µM (inactive) and 44.5 µM, respectively.
As to `NC(=O)c1sc2nnc(-c3ccccc3)c(-c3ccccc3)c2c1N`, the half-maximal activity concentration (AC50) in experiment [1] is greater than 100 µM; in experiment [2], > 100 µM (inactive).
Consider `C(=C(c1ccccc1)c1ccccc1)c1ccccn1`, for which the AC50 in experiment [1] and in experiment [2] (setting [3]) was greater than 100 µM throughout.
Regarding `CCOc1ccc2oc(C(=O)NC3CCN(Cc4ccccc4)CC3)c(C)c2c1`, the AC50 was 1.3 µM in experiment [1] and greater than 100 µM in experiment [2] (setting [3]).
Take `CN1c2ccccc2-c2nc3ccccc3n2C1c1ccncc1` (stereo not drawn): the AC50 in experiment [1] is greater than 100 µM; in experiment [2] it was > 100 µM (inactive); in experiment [2] (setting [3]) it was greater than 100 µM.
As to `O=C(c1ccc(Cl)cc1)C1CCCN(Cc2cccc3cnccc23)C1` (stereo not drawn), the AC50 in experiment [1] was greater than 100 µM; in experiment [2], > 100 µM (inactive).
For the compound `COc1ccccc1-n1c(Cc2ccccc2)nc2ccccc2c1=O`, the figures for the concentration at half-maximal activity (AC50) in experiment [1], in experiment [2] and in experiment [2] (setting [4]) were 47.8 µM, > 100 µM (inactive) and 33 µM, respectively.
With `Cc1cc(NC(=O)CS(=O)(=O)c2cn(Cc3cccc(Br)c3)c3ccccc23)no1`, the AC50 in experiment [1] was greater than 100 µM; in experiment [2] (setting [3]), 46 µM.
Take `CC1CCCN(c2nc(N(C)c3ccccc3)nc(N)c2[N+](=O)[O-])C1` (stereo not drawn): the concentration at half-maximal activity (AC50) in experiment [1] was 50.7 µM; in experiment [2], > 100 µM (inactive).
Regarding `Cc1sc(NC(=O)CN2CCOCC2)nc1-c1ccc2c(c1)CCN2S(=O)(=O)c1ccccc1`, the concentration at half-maximal activity (AC50) is 2.87 µM in experiment [1] and greater than 100 µM in experiment [2] (setting [3]).
Consider `O=C(CSCc1c(Cl)cccc1Cl)Nc1cccnc1`, for which the AC50 in experiment [1] is 5.01 µM; in experiment [2], > 100 µM (inactive); in experiment [2] (setting [3]) it was greater than 100 µM.
With `CCC1(C(=O)OC)CCc2c(cc(OC)c3ccccc23)C1=O` (stereo not drawn), the half-maximal activity concentration (AC50) in experiment [1] is greater than 100 µM; in experiment [2] (setting [3]), 42.2 µM.
With `CCC1=Nc2cc(C(=O)NCc3cccnc3)ccc2Sc2ccc(C)cc21`, the AC50 in experiment [1] is greater than 100 µM; in experiment [2] it was > 100 µM (inactive).
On to `C=CCn1c(SCC(=O)Nc2ccc3c(c2)OCCO3)nnc1-c1ccco1`, for which the half-maximal activity concentration (AC50) is less than 0.6 µM in experiment [1] and > 100 µM (inactive) in experiment [2].
The matching figures for `CSc1c(-c2ccccn2)c(N)nn1C(=O)C1CC1`: greater than 100 µM and > 100 µM (inactive).
As for `CN(CCOc1ccc(CC2SC(=O)NC2=O)cc1)c1ccccn1` (stereo not drawn), the half-maximal activity concentration (AC50) was greater than 100 µM in experiment [1], > 100 µM (inactive) in experiment [2] and 40.7 µM in experiment [2] (setting [3]).
Regarding `CCOC(=O)CN1C(=O)C(CC)Oc2ccc(Cl)cc21` (stereo not drawn), the AC50 was 5.94 µM in experiment [1] and greater than 100 µM in experiment [2] (setting [3]).
As for `CCn1c2ccccc2c2cc(NC(=O)c3ccco3)ccc21`, the concentration at half-maximal activity (AC50) in experiment [1] is greater than 100 µM; in experiment [2], > 100 µM (inactive); in experiment [2] (setting [3]), 40 µM.
Regarding `C[C@]12CCC3C(CC[C@H]4C[C@@H](O)CC[C@]34C)[C@H]1CC[C@H]2O` (stereo partly drawn), the AC50 in experiment [1] is greater than 100 µM; in experiment [2] (setting [4]), 43.3 µM.
Consider `CCN(CC)CCn1c(SCC(=O)Nc2cccc(OC)c2)nc2c(sc3ccccc32)c1=O`, for which the AC50 is greater than 100 µM in experiment [1] and > 100 µM (inactive) in experiment [2].
On to `CCOC(=O)c1ccoc1CN1CCN(S(=O)(=O)c2ccc(C)c(C)c2)CC1`, for which the AC50 was greater than 100 µM in experiment [1] and > 100 µM (inactive) in experiment [2].
With `CN(C)S(=O)(=O)c1cccc(C(=O)Nc2ccc(C(=O)Nc3cccc(S(N)(=O)=O)c3)cc2)c1`, the AC50 was greater than 100 µM in experiment [1] and > 100 µM (inactive) in experiment [2].
Regarding `O=C(NCc1ccccc1Cl)[C@H]1CCCN1C(=O)[C@H]1CCCN1C(=O)c1cccc2ccccc12`, the AC50 was greater than 100 µM in experiment [1], > 100 µM (inactive) in experiment [2] and 48 µM in experiment [2] (setting [3]).
Consider `O=C(Cn1c(C(=O)NCc2ccco2)cc2sccc21)c1ccccc1`, for which the concentration at half-maximal activity (AC50) in experiment [1] was 47.2 µM; in experiment [2] (setting [3]), 50 µM.
The matching figures for `Cc1noc(C)c1COc1cccc(C(=O)N2CCc3ccccc32)c1`: greater than 100 µM and greater than 100 µM.
Regarding `Cc1ccc(NC(=O)CN(C)C(=O)Cc2coc3cc(C)c(C)cc23)cc1`, the AC50 was 44 µM in experiment [1], > 100 µM (inactive) in experiment [2] and 42.4 µM in experiment [2] (setting [3]).
In the case of `Cc1nnn(C23CC4CC(CC(CC(=O)Nc5ccc(C)c(C)c5)(C4)C2)C3)n1`, the figures for the AC50 in experiment [1] and in experiment [2] were greater than 100 µM and > 100 µM (inactive), respectively.
The matching figures for `CN(c1ccccc1)c1ccc([N+](=O)[O-])c2nonc12`: 49.4 µM and > 100 µM (inactive).
Turning to `O=C(Nc1ccc(Br)cc1)c1cccnc1N1CCCCC1`, the AC50 is greater than 100 µM in experiment [1] and 45.7 µM in experiment [2] (setting [3]).
As to `COc1ccc(-c2cn3cc(Cl)ccc3n2)cc1OC`, the AC50 in experiment [1] is 31.4 µM; in experiment [2] it was > 100 µM (inactive); in experiment [2] (setting [3]) it was 27.2 µM.
For the compound `CN(c1ccccc1)S(=O)(=O)c1cccc(NC(=O)CCN2C(=O)C3CCCCC3C2=O)c1` (stereo not drawn), the AC50 in experiment [1] is greater than 100 µM; in experiment [2] it was > 100 µM (inactive).
As to `Cn1c(=O)c2nc(-c3ccccc3)c(-c3ccccc3)nc2n(C)c1=O`, the concentration at half-maximal activity (AC50) in experiment [1] is 35.6 µM; in experiment [2], > 100 µM (inactive); in experiment [2] (setting [3]), 47.9 µM.
Regarding `COc1ccc(-c2csc3ncn(-c4ccccc4OC)c(=O)c23)cc1OC`, the AC50 is greater than 100 µM in experiment [1] and > 100 µM (inactive) in experiment [2].
For the compound `O=C(Cc1c(Cl)cccc1Cl)Nc1cccc(S(=O)(=O)N2CCOCC2)c1`, the AC50 in experiment [1] is greater than 100 µM; in experiment [2], > 100 µM (inactive); in experiment [2] (setting [3]), 47.3 µM.
On to `C=C(C)Cn1c(=O)c2c(nc3n2CC(C)CN3Cc2ccccc2)n(C)c1=O` (stereo not drawn), for which the half-maximal activity concentration (AC50) in experiment [1] and in experiment [2] (setting [3]) was greater than 100 µM in each case.
On to `CCOc1ccc(CCNC(=O)CN2C(=O)CCSc3ccccc32)cc1`, for which the AC50 in experiment [1] is greater than 100 µM; in experiment [2], > 100 µM (inactive).
For the compound `O=S(=O)(NC1CC1)c1ccc(S(=O)(=O)N2CCc3ccccc32)cc1`, the AC50 in experiment [1] is 8.03 µM; in experiment [2] (setting [3]), greater than 100 µM.
For `CCOc1ccccc1N1CCN(C(=O)CCCc2nc3ccccc3s2)CC1`, the figures for the AC50 in experiment [1], in experiment [2] and in experiment [2] (setting [3]) were 43.7 µM, > 100 µM (inactive) and 37.2 µM, respectively.
Regarding `CCN(c1ccccc1)S(=O)(=O)c1cccc(C(=O)NCC(c2cccs2)N(C)C)c1` (stereo not drawn), the concentration at half-maximal activity (AC50) is greater than 100 µM in experiment [1] and > 100 µM (inactive) in experiment [2].
`CC(Nc1ncnc2ccccc12)c1ccccc1` (stereo not drawn): the AC50 in experiment [1] is greater than 100 µM; in experiment [2], > 100 µM (inactive).
Take `O=C(CSc1nc2scc(-c3ccccc3)c2c(=O)[nH]1)N1CCCCC1`: the AC50 was greater than 100 µM in experiment [1], > 100 µM (inactive) in experiment [2] and 44.2 µM in experiment [2] (setting [3]).
Take `COc1cc(OC)nc(Oc2ccccc2C(=O)Oc2ccc(C)cc2)n1`: the figures for the AC50 in experiment [1] and in experiment [2] (setting [3]) were 51.1 µM and 50.4 µM, respectively.
The like results for `COc1ccc(-c2nc(NC(C)=O)sc2-c2ccccc2)cc1` were, in that order, 49.1 µM and 44.1 µM.

For the origin of these results see PubChem BioAssay AID977621 (Broad Institute, 2014).
